Data reported in US10758473B2, “Extract of plant origin of globularia and method for obtaining said extract by in vitro plant culture” (Sederma, priority 2011, dated 2020).

What was measured:
[1] = DPPH anti-radical test; format: biochemical; conditions: positive control, 0003% of caffeic acid
Description: 2) DPPH Anti-Radical Test The DPPH (1, 1-diphenyl-2-picryl hydrazyl) is a stable free radical which is widely used for the detection of free radical scavengers. This molecule by losing its radical character is converted to DPPH2 (1, 1-diphenyl-2-picryl hydrazine). This conversion is accompanied by discoloration (purple→yellow) which can be monitored over time by spectrophotometry at 517 nm.

[2] = Anti-singlet-oxygen test (Rose Bengal, visible light, uric acid destruction); format: biochemical; conditions: positive control, caffeic acid at 0002%
Description: Molecular oxygen (O2) plays a vital role as an acceptor of the respiratory chain terminal electrons. However, this metabolism and others, as well as external factors, such as UV radiations, lead to the occurrence of certain derivatives particularly reactive (singlet oxygen, hydroxyl radical, superoxide anion), which will cause oxidative damage to lipids, proteins and nucleic acids, even in healthy bodies. Singlet oxygen is one of these very energetic and highly reactive forms of oxygen. It is possible to produce experimentally in vitro singlet oxygen with dyes and UVA photons or visible light. The test presented thereafter uses the Rose Bengal, a dye and visible light. The purpose of this test is to evaluate the degradation of uric acid by singlet oxygen formed from the Rose Bengal, under the action of visible light. The visualization of the production of singlet oxygen is obtained by following the destruction of uric acid at 292 nm. In the presence of a compound capable of neutralizing singlet oxygen, this destruction will be slowed. The caffeic acid at 0002% is used as a positive control of an anti-singlet-oxygen activity Data in Table 3 below.

[3] = system: creatine kinase; assay: Residual intracellular creatine kinase activity in human dermal fibroblasts after H2O2 stress; format: cell-based; conditions: Trolox at 500 μm
Description: Creatine kinase is a ubiquitous enzyme which exists in two isoforms in the skin. It is used to store energy in cells and enables tissues to respond to urgent energy requirements. This enzyme converts creatine into phosphocreatine using ATP which is converted back to ADP. When necessary, the enzyme works in the reverse direction and returns energy. Its activity falls with age as it is one of the preferred targets of reactive oxygen groups. Maintaining and increasing the activity of this enzyme is therefore desirable. Human dermal fibroblasts were placed in contact with the Globularia cordifolia extract according to the invention for 3 days. The cells were then exposed without said extract to an oxidative stress (hydrogen peroxide). After a further 3 days' contact with the Globularia cordifolia extract, the cells were again exposed to the same oxidative stress before being homogenized to measure residual intracellular creatine kinase activity. Activity was measured from the production of ATP from phosphocreatine and ADP. ATP is then measured from an enzymatic reaction leading to the formation of NADPH, readed at 340 nm. Results were standardized by measuring total protein (BCA).

[4] = system: mitochondrial membrane potential; assay: Mitochondrial membrane potential in fibroblasts after H2O2 stress; format: cell-based, human; conditions: Trolox at 500 μm
Procedure: Human dermal fibroblasts were placed in contact with the Globularia cordifolia extract according to the invention for 3 days. The cells were then exposed without said extract to an oxidative stress (hydrogen peroxide). After a further 3 days' contact with the Globularia cordifolia extract, the cells were again exposed to the same oxidative stress before being homogenized to measure residual intracellular creatine kinase activity. Activity was measured from the production of ATP from phosphocreatine and ADP. ATP is then measured from an enzymatic reaction leading to the formation of NADPH, readed at 340 nm. Results were standardized by measuring total protein (BCA). A fall in this membrane potential is a warning sign of ageing and cell death and it is therefore essential that this be maintained to preserve the mitochondrial ability to produce ATP. Membrane potential was measured using a specific label sensitive to mitochondrial proton micro-variations. The label exists in two forms, monomeric and polymeric, which have different emission spectra. A high membrane potential promotes the polymeric form. An increase in the monomer/polymer ratio (520 nm/590 nm) produces therefore a fall in Δψ. A high ratio is therefore less conducive to cell survival than a lower ratio. The same fibroblast cultures than used for creatine kinase there above were used.

[5] = system: proteasome; assay: Residual proteasome activity in human dermal fibroblasts after H2O2 stress; format: cell-based; conditions: Trolox 500 μm
Description: Human dermal fibroblasts were placed or not (negative control) in contact with the Globularia cordifolia extract until they grew to confluence. The Globularia cordifolia extract was then removed and the cells were exposed to the oxidant model, hydrogen peroxide, to produce accelerated ageing. After this stage, the cells were again exposed to the Globularia cordifolia extract for 3 days and then were reseeded and subjected to a further oxidative stress to amplify the effect of the initial stress. The cells were then homogenized and the residual proteasome activity measured by monitoring cleavage of a model fluorescent peptide. Results were standardized by parallel measurement of protein.

[6] = system: sirtuin-1; assay: Intracellular sirtuin-1 in human keratinocytes (ELISA); format: cell-based; conditions: Trolox at 500 μm
Description: Hormetic effects such as calorie restriction or contact with hormetic molecules increase sirtuin enzymes and the lifespan of different organisms. The sirtuins act particularly on FOXO factor deacetylation and prevent triggering of the production of apoptotic proteins. The sirtuins also stimulate cellular anti-oxidant defenses and purification mechanisms (detoxification) and help to preserve mitochondrial function and therefore energy production. This increases survival and resistance to stresses. Human keratinocytes were cultured in the presence or absence of the Globularia cordifolia extract for 6 days and were then grinded and the intracellular levels of sirtuin-1 were measured using an ELISA method. Results were standardized by parallel measurement of total protein (BCA).

[7] = system: SOD (superoxide dismutase); assay: Intracellular SOD activity in human keratinocytes treated with hydrogen peroxide; format: cell-based; conditions: Trolox at 0.012%
Description: A preliminary test on the antioxidant skin potential had shown that human keratinocytes treated with the hydrogen peroxide, a model of oxidative stress, increased their intracellular activity of SOD (superoxide dismutase) by 22%*(p<0.01) compared to the negative control in the presence of the Globularia cordifolia extract.

[8] = system: intracellular peroxide; assay: Endogenous peroxides in human keratinocytes (DCFH-DA probe); format: cell-based; conditions: Trolox at 500 μm
Procedure: This factor can be measured reliably using a probe called DCFH-DA, whose characteristic is to fluoresce in contact with peroxides once it entered the cell. Confluence human keratinocytes were placed in contact or not (negative control) for 24 h with the Globularia cordifolia extract until they grew to confluence. The cells were then exposed to and metabolized the DCFH label in a buffer. The label can then react with both intracellular peroxides. The medium was then replaced with one containing or not the Globularia cordifolia extract and the oxidizing agent model hydrogen peroxide (neither the medium nor the Globularia cordifolia extract reacts directly with H2O2). Fluorescence was read in order to estimate the level of the intracellular peroxide which had reacted with the label. The number of cells was quantified using a nuclear labeling method (Hoechst 33258).

[9] = system: Glutathion; assay: Glutathion synthesis in keratinocytes; format: cell-based; conditions: Trolox at 0.012%
[10] = target: bovine serum albumin (BSA) (Bos taurus, UniProt P02769); assay: Non-enzymatic glycation of BSA; format: biochemical
Procedure: 1) Non-Enzymatic Glycation of BSA
This simple test reproduces in vitro a stress to which regular skin proteins are subjected: their functional alteration by a non-enzymatic glycation phenomenon.
The study model used is a bovine serum albumin (BSA), which is contacted with a physiological reducing sugar, the fructose, giving a spontaneous and slow reaction between the two molecules that can be accelerated by temperature. In this test, the BSA and fructose are incubated in the presence or absence of the test products at 50° C. for 7 days. The glycation end products have a natural fluorescence that can be quantified using a fluorimeter (λex=360 nm and λem=460 nm). 0.03% Aminoguanidine is used as a positive control of glycation inhibition.
The anti-glycation effect of the extract of Globularia cordifolia was studied using a protein model, BSA and a natural reducing sugar, fructose which glycates, i.e. binds, to the protein in a non-enzymatic manner. The product of this binding is fluorescent and is monitored with a recording system.

Sequence of bovine serum albumin (BSA) (P02769 25-607): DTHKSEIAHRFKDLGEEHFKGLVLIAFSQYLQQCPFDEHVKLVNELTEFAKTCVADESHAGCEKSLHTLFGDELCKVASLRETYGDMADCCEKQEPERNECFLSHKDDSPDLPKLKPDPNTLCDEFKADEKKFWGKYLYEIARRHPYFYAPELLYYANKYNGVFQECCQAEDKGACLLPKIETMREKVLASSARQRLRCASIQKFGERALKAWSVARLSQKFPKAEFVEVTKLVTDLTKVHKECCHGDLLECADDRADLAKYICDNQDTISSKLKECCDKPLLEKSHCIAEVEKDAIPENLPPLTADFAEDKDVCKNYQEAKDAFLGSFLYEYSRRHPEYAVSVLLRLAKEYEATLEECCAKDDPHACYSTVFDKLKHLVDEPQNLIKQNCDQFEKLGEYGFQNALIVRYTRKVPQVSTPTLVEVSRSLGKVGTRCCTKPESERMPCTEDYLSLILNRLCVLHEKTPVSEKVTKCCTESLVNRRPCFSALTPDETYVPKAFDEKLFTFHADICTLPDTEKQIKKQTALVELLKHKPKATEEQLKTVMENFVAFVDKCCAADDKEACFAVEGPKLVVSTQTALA

Question: What does the source list for O=C(O)/C=C/c1ccc(O)c(O)c1 [caffeic acid]?
Answer: anti-radical activity versus the control [1]: −85%; anti-singlet-oxygen activity versus the control [2]: +73%

Question: What does the source list for Cc1c(C)c2c(c(C)c1O)CCC(C)(C(=O)O)O2 (centres unmarked) [Trolox]?
Answer: Creatin kinase activity % Change, positive control [3]: Positive control Trolox at 500 μm: +28%; p < 0.05.; Mitochondrial membrane potential % Change, positive control [4]: Positive control Trolox at 500 μm: +36%; p < 0.05.; proteasome activity % Change, positive control [5]: Positive control Trolox 500 μm: +24%; (p < 0.05).; Sirtuin-1 % Change, positive control [6]: Positive control Trolox at 500 μm: +27%; p < 0.05.; SOD, positive control [7]: 21%; Intracellular peroxide % Change, positive control [8]: Positive control Trolox at 500 μm: −91%; (p < 0.01).; GSH, positive control [9]: 53%

Question: Which “Glycation % Change, positive control” value ([10]; aminoguanidine at 0.03%) does the source give for N=C(N)NN [Aminoguanidine] here?
Answer: Positive control aminoguanidine at 0.03%: −85%; p < 0.01.

Question: What about the glycation inhibition versus the control ([10]; positive control, 0.03% Aminoguanidine) of the same compound?
Answer: 85%
